Results from PMC4438233, “Antibacterial effects of Traditional Chinese Medicine monomers against Streptococcus pneumoniae via inhibiting pneumococcal histidine kinase (VicK)” (Frontiers in Microbiology, 2015).
Where “and” joins values, the source holds several entries; their conditions need not be identical. Equal entries are not always repeated. Where two headings read alike, the source gives them in different places. Marks after values point to notes of the source that are not given here.

Legend:
[1] = tested on: S. pneumoniae NCTC7466 biofilm; assay: Biofilm-killing assay (crystal violet); type: cell-based, Streptococcus pneumoniae; settings: crystal violet staining; 15.6–2000 μM; MIC or sub-MIC levels
Protocol: Biofilm formation was detected using a semiquantitative plate assay (Moscoso et al., [2006]). 10^6 CFU of D39 was incubated in C+Y medium for 6 h in a 96-well plate at 37°C. Then removed the planktonic cells, fresh C+Y medium containing the serially diluted drugs was added to each well and incubated for another 12 h at 37°C. The wells were washed gently three times with phosphate-buffered saline (PBS) and then stained with 1% (w/v) crystal violet. 200 μL methanol was added to dissolve the precipitate and determine the absorbance of the wells at 590 nm using a spectrophotometer (DTX880, Beckman Coulter, USA). The values of biofilm formation were normalized for absorbance, and the percentages were calculated in relation to control. The experiment was repeated twice.

[2] = tested on: Penicillin-resistant S. pneumoniae strains; assay: Checkerboard test with penicillin against penicillin-resistant S. pneumoniae; type: cell-based, Streptococcus pneumoniae; settings: Streptococcus pneumoniae, agent alone
Protocol: (§1) Minimum inhibitory concentration (MIC) assays for the antibacterial activities of the compounds were performed according to the standard […] method of the Clinical and Laboratory Standards Institute of America. MIC testing of drug-resistant S. pneumoniae, drug-resistant S. aureus, streptococci and antimicrobial combination was also performed using the same method. Briefly, the drugs were serially diluted 2-fold into eight wells with C+Y medium, yielding final concentrations ranging from […]. Then 10^6 CFU bacteria were added to each well. Inoculated medium containing 1% DMSO served as a bacterial growth control, whereas uninoculated medium served as a sterility control. The plates were incubated at 37°C for 12–16 h. […] The experiment was repeated three times.
The antimicrobial effects of different combinations of two antimicrobial agents were assayed using the checkerboard test (Bajaksouzian et al., [1997]). Each experiment was repeated thrice. The in vitro interaction between the five drugs with PEN was quantified by the fractional inhibitory concentration (FIC). The FIC index (FICI) was calculated using the following formula:
(§2) (2) FIC=FICA+FICB=[A]/MICA+[B]/MICB
(§3) where [A] and [B] are the concentrations of drugs A and B, respectively; MICA and FICA are the MIC and FIC of drug A for the organism, respectively; and MICB, and FICB are the MIC and FIC of drug B for the organism, respectively. The FIC index obtained was interpreted as follows: =0.5, synergy; FIC > 2.0, antagonism (Gupta and Kohli, [2003]).

full-length VicK protein = target: T1, full-length VicK protein (Streptococcus pneumoniae, UniProt Q8DPL8); assay: Inhibition assay for ATPase activity of VicK (Kinase-Glo Luminescent Kinase Assay); type: biochemical; settings: 6 μg VicK, 5 μM ATP
T1 construct: 6 His; made in house
T1 sequence (Q8DPL8 whole entry): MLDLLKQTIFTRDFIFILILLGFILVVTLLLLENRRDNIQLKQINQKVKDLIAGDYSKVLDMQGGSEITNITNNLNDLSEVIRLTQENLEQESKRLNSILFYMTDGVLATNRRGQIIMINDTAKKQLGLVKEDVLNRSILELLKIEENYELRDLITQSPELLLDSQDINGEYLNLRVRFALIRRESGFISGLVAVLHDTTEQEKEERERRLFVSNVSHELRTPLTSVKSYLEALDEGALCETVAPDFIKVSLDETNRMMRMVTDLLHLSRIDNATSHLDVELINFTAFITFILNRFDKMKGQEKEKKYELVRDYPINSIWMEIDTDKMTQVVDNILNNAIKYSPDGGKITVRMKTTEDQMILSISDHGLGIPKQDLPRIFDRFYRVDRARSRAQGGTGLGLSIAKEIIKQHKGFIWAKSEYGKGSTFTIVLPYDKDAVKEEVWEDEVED
Protocol: The inhibitory activities of the Chinese medicine monomers for the ATPase activity of the full-length VicK protein were evaluated using the Kinase-Glo™Luminescent Kinase Assay (Promega, Madison, USA). Briefly, 6 μg VicK protein was pre-incubated with a series of dilution of compounds in the reaction buffer at 37°C for 30 min. 5 μM ATP was added and incubated for another 30 min. Kinase-Glo™Reagent was also added to detect the remaining ATP recorded from luminescence measurements (RLU). In parallel, the VicK protein with no addition of compounds was used as a control, and the mixture with compounds excluding the VicK protein served as another control. The rate of protein phosphorylation (Rp) inhibition by the compounds was calculated from Equation (1).
(1) Rp=1−RLU(compound+ATP+Reagent) −RLU(compound+ATP+vick+Reagent)/RLU(ATP +Reagent)−RLU(ATP+vick+Reagent)×100%
The half maximal inhibitory concentration (IC50), which is the concentration of inhibition of 50% VicK protein autophosphorylation, was determined by GraphPad Prism 5 (Qin et al., [2006]).

S. pneumoniae = assay: Checkerboard test with erythromycin or tetracycline against S. pneumoniae; type: cell-based, Streptococcus pneumoniae
Protocol: The antimicrobial effects of different combinations of two antimicrobial agents were assayed using the checkerboard test (Bajaksouzian et al., [1997]). Each experiment was repeated thrice. […] The FIC index (FICI) was calculated using the following formula:
as §2, §3

S. pneumoniae NCTC7466 [3] = assay: MIC against S. pneumoniae NCTC7466 (D39); type: cell-based; settings: Streptococcus pneumoniae
Protocol: as §1

[4] = tested on: clinical S. pneumoniae 19F (CMCC31693); assay: Mouse colonization model, serotype 19F; type: in vivo, BALB/c mice; settings: for Mean log CFU at site of infection: 19F; for reduction in 19F bacterial numbers: at 24 h
Protocol: In colonization models, the mice were intranasally challenged by 20 μL of clinical drug-resistant strains (pneumococcal serotype 19F or 19A, 1.5 × 10^8 CFU). An hour later, the mice were intraperitoneally injected with 100 μL drugs (2 × MIC) alone or in combination with PEN (2 × MIC). These injections were continued thrice a day for 3 d. Nasal wash and lung tissues were obtained to analyze the bacteria load at 24, 48, and 72 h after drug infection. Then 100 μL aliquots of the samples diluted were plated on blood agar plates. The colonies were counted after incubation overnight at 37°C with 5% CO2.

pneumococcal strains = assay: MIC against clinical pneumococcal strains (penicillin susceptible, intermediate, resistant); type: cell-based, Streptococcus pneumoniae; settings: for MIC50 / MIC90: Streptococcus pneumoniae
Protocol: as §1

S. pseudopneumoniae = assay: MIC against S. pseudopneumoniae; type: cell-based; settings: Streptococcus pseudopneumoniae
Protocol: as §1

S. pneumoniae NCTC7466 [5] = assay: Mouse sepsis model, survival time; type: in vivo, BALB/c mice; settings: i.p. infection 1 × 10^3 CFU; drug i.p. thrice a day for 3 d; untreated control 28.8 ± 1.25
Protocol: Female BALB/c mice (12–15 per group) aged 4–6 weeks were used to evaluate the antimicrobial effects of the compounds in vivo. In sepsis models, the mice were intraperitoneally infected with 100 μL S. pneumoniae NCTC7466 strain suspension (1 × 10^3 CFU). […] Two control groups were injected with 100 μL 1% DMSO (dissolved the drugs, negative control) or PEN (0.42 mg/kg/d, positive control) following the same injection route. The result was expressed as cumulative survival times following 7 d of observation.

S. mutans = assay: MIC against S. mutans; type: cell-based; settings: Streptococcus mutans
Protocol: as §1

[6] = in combination with Erythromycin
[7] = in combination with Tetracycline
[8] = NW (nasal wash), 24 h, i.p. three times a day for 3 days, control 6.72
[9] = Penicillin intermediate (n = 12)

Structure (SMILES)	inhibition of biofilm formation [1]	FICI (S. pneumoniae; [6])	Outcome (S. pneumoniae; [6])	FICI (S. pneumoniae; [7])	Outcome (S. pneumoniae; [7])	Mean log CFU at site of infection ([4]; Lung, 24 h, control 2.82)	Mean log CFU at site of infection ([4]; Lung, 48 h, control 7.57)	Mean log CFU at site of infection ([4]; Lung, 72 h, control 4.95)	Mean log CFU at site of infection [4, 8] [log CFU]	Mean log CFU at site of infection ([4]; NW, 48 h, control 6.27)	Mean log CFU at site of infection ([4]; NW, 72 h, control 7.09)	reduction in 19F bacterial numbers [4]	MIC of pneumococcal strains, Range (pneumococcal strains; [9]) [µg/mL]	MIC of pneumococcal strains, MIC50 (pneumococcal strains; Penicillin resistant (n = 15)) [µg/mL]	MIC of pneumococcal strains, Range (pneumococcal strains; Penicillin resistant (n = 15)) [µg/mL]	MIC of pneumococcal strains, Range (pneumococcal strains; Penicillin susceptible (n = 7)) [µg/mL]	Mean survival of mice ± SEM (S. pneumoniae NCTC7466 [5]) [h]	other results
CCCCCCCCCCCCOC(=O)c1cc(O)c(O)c(O)c1 [Compound 5, Dodecyl gallate]	inhibit biofilm formation at sub-MIC	0.31	Synergy (=0.5, synergy)	0.18	Synergy (=0.5, synergy)	3.9 (0.0001)^b log CFU	3 (0.006)^b log CFU	2.8 (<0.0001)^b log CFU	2.16	5.55 log CFU	5.82 (<0.0001)^b log CFU	one-log reduction	42 to 168	42	10.5 to 168.8	21 to 168	60.2 ± 7.3	MIC ([2]; strain 652336, read-out: MIC, Alone): 84.4 µg/mL; MIC ([2]; strain 736007, read-out: MIC, Alone): 337 µg/mL; MIC ([2]; strain 8364981, read-out: MIC, Alone): 168 µg/mL; MIC ([2]; strain 12092624, read-out: MIC, Alone): 84.4 µg/mL; IC50 (full-length VicK protein; IC50 (inhibition of VicK ATPase activity / autophosphorylation)): 9.1 µM; IC50 (full-length VicK protein; IC50 (inhibition of VicK ATPase activity / autophosphorylation), value in parentheses): 9.07 µM; MIC (S. pneumoniae NCTC7466 [3]; S. pneumoniae NCTC7466 (D39), read-out: MIC): 21 µg/mL; MIC (S. pneumoniae NCTC7466 [3]; S. pneumoniae NCTC7466 (D39), value in parentheses, read-out: MIC): 62 µM; MIC50 (pneumococcal strains; Penicillin intermediate (n = 12), read-out: MIC of pneumococcal strains, MIC50): 84 µg/mL; MIC90 (pneumococcal strains; Penicillin intermediate (n = 12), read-out: MIC of pneumococcal strains, MIC90): 168 µg/mL; MIC50 (pneumococcal strains; Penicillin resistant (n = 15), read-out: MIC of pneumococcal strains, MIC50): 42 µg/mL; MIC90 (pneumococcal strains; Penicillin resistant (n = 15), read-out: MIC of pneumococcal strains, MIC90): 169 µg/mL; MIC50 (pneumococcal strains; Penicillin susceptible (n = 7), read-out: MIC of pneumococcal strains, MIC50): 42 µg/mL; MIC90 (pneumococcal strains; Penicillin susceptible (n = 7), read-out: MIC of pneumococcal strains, MIC90): 42 µg/mL; MIC (S. pseudopneumoniae; S. pseudopneumoniae clinical isolate, 10^6 CFU/ml, read-out: MIC): 42 µg/mL; MIC (S. mutans; S. mutans clinical isolate, 10^6 CFU/ml, read-out: MIC): 42 µg/mL
CC(C)=CCCC1=CC(=O)c2c(O)ccc(O)c2C1=O [Compound 3, Deoxyshikonin]	inhibit biofilm formation at sub-MIC	0.37	Synergy (=0.5, synergy)	0.125	Synergy (=0.5, synergy)	1 (<0.0001)^b log CFU	1 (0.001)^b log CFU	2.5 (<0.0001)^b log CFU	3.30	4.6 (0.0002)^b log CFU	5.52 (<0.0001)^b log CFU	one-log reduction	34 to 196	17	8.5 to 136	17 to 34	50.6 ± 4.1	MIC ([2]; read-out: MIC, Alone, strain 652336): 136 µg/mL; MIC ([2]; read-out: MIC, Alone, strain 736007): 136 µg/mL; MIC ([2]; read-out: MIC, Alone, strain 8364981): 136 µg/mL; MIC ([2]; read-out: MIC, Alone, strain 12092624): 136 µg/mL; IC50 (full-length VicK protein; read-out: IC50 (inhibition of VicK ATPase activity / autophosphorylation) (converted)): 15.4 µM; IC50 (full-length VicK protein; value in parentheses, read-out: IC50 (inhibition of VicK ATPase activity / autophosphorylation) (converted)): 15.4 µM; MIC (S. pneumoniae NCTC7466 [3]; NCTC7466): 17 µg/mL and 62 µM; MIC50 (pneumococcal strains; read-out: MIC of pneumococcal strains, MIC50, Penicillin intermediate (n = 12)): 68 µg/mL; MIC50 (pneumococcal strains; read-out: MIC of pneumococcal strains, MIC50, Penicillin resistant (n = 15)): 17 µg/mL; MIC50 (pneumococcal strains; read-out: MIC of pneumococcal strains, MIC50, Penicillin susceptible (n = 7)): 17 µg/mL; MIC90 (pneumococcal strains; read-out: MIC of pneumococcal strains, MIC90, Penicillin intermediate (n = 12)): 196 µg/mL; MIC90 (pneumococcal strains; read-out: MIC of pneumococcal strains, MIC90, Penicillin resistant (n = 15)): 68 µg/mL; MIC90 (pneumococcal strains; read-out: MIC of pneumococcal strains, MIC90, Penicillin susceptible (n = 7)): 34 µg/mL; MIC (S. pseudopneumoniae): 136 µg/mL; MIC (S. mutans): 34 µg/mL
